This is an account of results in the supplement of paper PMC10627819.

Holding throughout (assay): Bliss interaction score (quartile over a dose matrix) (fitness difference); higher = more antagonism (negative = synergy)
One test has as its system B. subtilis 168. The gist of the method:
(§1)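 The Bliss score subtracts expected fitness, the product of the single-drug fitness values, from observed fitness. Fitness is plate-normalised OD595 at entry into stationary phase, relative to the robust no-drug mean and capped at 1, with single-drug fitness inferred from combinations. Summaries are quartiles over technical, biological and donor/recipient replicates.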

For a further test, the system named is S. aureus DSM 20231. An outline of the steps:
as §1

For the next test, the system named is S. aureus Newman. An outline of the steps: as §1
The subject of a further test is S. pneumoniae D39V. The gist of the method:
as §1
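Note: first quartile when negative (synergy) and third quartile when positive (antagonism).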

On to `CC(=O)OC[C@H]1O[C@@H]([S-])[C@H](OC(C)=O)[C@@H](OC(C)=O)[C@@H]1OC(C)=O.CCP(CC)CC.[Au+]` [Auranofin] + CN(N=O)C(=O)N[C@@H](C=O)[C@@H](O)[C@H](O)[C@H](O)CO [Streptozotocin], for which the Bliss interaction score with B. subtilis 168 is 0.0355; in the test with S. aureus DSM 20231, -0.0317; in the test on S. aureus Newman, 0.0723; in the test with S. pneumoniae D39V it was 0.105.
On to `CC(=O)OC[C@H]1O[C@@H]([S-])[C@H](OC(C)=O)[C@@H](OC(C)=O)[C@@H]1OC(C)=O.CCP(CC)CC.[Au+]` [Auranofin] + CN[C@@H]1[C@H](O)[C@H](NC)[C@H]2O[C@@]3(O)C(=O)C[C@@H](C)O[C@H]3O[C@@H]2[C@H]1O [Spectinomycin], for which the Bliss interaction score in the test on B. subtilis 168 is 0.0604; in the test on S. aureus DSM 20231, 0.0611; with S. aureus Newman, 0.0532; in the test on S. pneumoniae D39V, -0.162.
For the compound `CC(=O)OC[C@H]1O[C@@H]([S-])[C@H](OC(C)=O)[C@@H](OC(C)=O)[C@@H]1OC(C)=O.CCP(CC)CC.[Au+]` [Auranofin] + CN[C@@H]1[C@H](O[C@H]2[C@H](O[C@H]3[C@H](O)[C@@H](O)[C@H](N=C(N)N)[C@@H](O)[C@@H]3N=C(N)N)O[C@@H](C)[C@]2(O)C=O)O[C@@H](CO)[C@H](O)[C@H]1O [Streptomycin], the Bliss interaction score in the test with B. subtilis 168 was 0.0215; in the test on S. aureus DSM 20231, -0.0362; with S. aureus Newman, -0.0862; in the test on S. pneumoniae D39V, -0.163.
Taken in the same sequence, the figures for `CC(=O)OC[C@H]1O[C@@H]([S-])[C@H](OC(C)=O)[C@@H](OC(C)=O)[C@@H]1OC(C)=O.CCP(CC)CC.[Au+]` [Auranofin] + CN[C@H](CC(C)C)C(=O)N[C@H]1C(=O)N[C@@H](CC(N)=O)C(=O)N[C@H]2C(=O)N[C@H]3C(=O)N[C@H](C(=O)N[C@H](C(=O)O)c4cc(O)cc(O)c4-c4cc3ccc4O)[C@H](O)c3ccc(c(Cl)c3)Oc3cc2cc(c3O[C@@H]2O[C@H](CO)[C@@H](O)[C@H](O)[C@H]2O[C@H]2C[C@](C)(N)[C@H](O)[C@H](C)O2)Oc2ccc(cc2Cl)[C@H]1O [Vancomycin] were 0.0381, -0.0311, 0.0325 and 0.0929.
As to `CC(=O)OC[C@H]1O[C@@H]([S-])[C@H](OC(C)=O)[C@@H](OC(C)=O)[C@@H]1OC(C)=O.CCP(CC)CC.[Au+]` [Auranofin] + CN[C@H](CC(C)C)C(=O)N[C@H]1C(=O)N[C@@H](CC(N)=O)C(=O)N[C@H]2C(=O)N[C@H]3C(=O)N[C@H](C(=O)N[C@H](C(=O)O)c4cc(O)cc(O)c4-c4cc3ccc4O)[C@H](O[C@H]3C[C@](C)(N)[C@@H](O)[C@H](C)O3)c3ccc(c(Cl)c3)Oc3cc2cc(c3O[C@@H]2O[C@H](CO)[C@@H](O)[C@H](O)[C@H]2O[C@H]2C[C@](C)(NCc3ccc(-c4ccc(Cl)cc4)cc3)[C@@H](O)[C@H](C)O2)Oc2ccc(cc2Cl)[C@H]1O [Oritavancin], the Bliss interaction score with B. subtilis 168 came to 0.0311; with S. aureus DSM 20231, 0.0219; with S. aureus Newman, 0.0771; in the test with S. pneumoniae D39V, 0.0463.
On to `CC(=O)OC[C@H]1O[C@@H]([S-])[C@H](OC(C)=O)[C@@H](OC(C)=O)[C@@H]1OC(C)=O.CCP(CC)CC.[Au+]` [Auranofin] + CO/N=C(\C(=O)N[C@@H]1C(=O)N2C(C(=O)O)=C(COC(C)=O)CS[C@H]12)c1csc(N)n1 [Cefotaxime], for which the Bliss interaction score in the test with B. subtilis 168 was -0.0473; in the test with S. aureus DSM 20231, 0.0539; in the test with S. aureus Newman, 0.0713; with S. pneumoniae D39V, 0.0687.
As for `CC(=O)OC[C@H]1O[C@@H]([S-])[C@H](OC(C)=O)[C@@H](OC(C)=O)[C@@H]1OC(C)=O.CCP(CC)CC.[Au+]` [Auranofin] + CO/N=C(\C(=O)N[C@@H]1C(=O)N2C(C(=O)O)=C(COC(N)=O)CS[C@H]12)c1ccco1 [Cefuroxime], the Bliss interaction score in the test on B. subtilis 168 is -0.0911; in the test on S. aureus DSM 20231, -0.239; with S. aureus Newman, 0.0517; with S. pneumoniae D39V, 0.0434.
Consider `CC(=O)OC[C@H]1O[C@@H]([S-])[C@H](OC(C)=O)[C@@H](OC(C)=O)[C@@H]1OC(C)=O.CCP(CC)CC.[Au+]` [Auranofin] + CO/N=C(\C(=O)N[C@@H]1C(=O)N2C(C(=O)[O-])=C(C[N+]3(C)CCCC3)CS[C@H]12)c1csc(N)n1 [Cefepime], for which the Bliss interaction score with B. subtilis 168 is 0.046; in the test with S. aureus DSM 20231, 0.0512; in the test with S. aureus Newman, 0.0786; in the test with S. pneumoniae D39V, 0.114.
`CC(=O)OC[C@H]1O[C@@H]([S-])[C@H](OC(C)=O)[C@@H](OC(C)=O)[C@@H]1OC(C)=O.CCP(CC)CC.[Au+]` [Auranofin] + CO[C@@H]1[C@@H](OC(N)=O)[C@@H](O)[C@H](Oc2ccc3c(O)c(NC(=O)c4ccc(O)c(CC=C(C)C)c4)c(=O)oc3c2C)OC1(C)C [Novobiocin]: the Bliss interaction score in the test on B. subtilis 168 was -0.0665; with S. aureus DSM 20231 it was -0.0224; in the test with S. aureus Newman, 0.105; in the test with S. pneumoniae D39V, 0.0612.
Taken in the same sequence, the figures for `CC(=O)OC[C@H]1O[C@@H]([S-])[C@H](OC(C)=O)[C@@H](OC(C)=O)[C@@H]1OC(C)=O.CCP(CC)CC.[Au+]` [Auranofin] + CO[C@@]12[C@H](COC(N)=O)C3=C(C(=O)C(C)=C(N)C3=O)N1C[C@@H]1N[C@@H]12 [MitomycinC] were 0.0315, -0.0435, 0.0961 and -0.126.
`CC(=O)OC[C@H]1O[C@@H]([S-])[C@H](OC(C)=O)[C@@H](OC(C)=O)[C@@H]1OC(C)=O.CCP(CC)CC.[Au+]` [Auranofin] + CO[C@H]1/C=C/O[C@@]2(C)Oc3c(C)c(O)c4c(O)c(c(/C=N/N5CCN(C)CC5)c(O)c4c3C2=O)NC(=O)/C(C)=C\C=C\[C@H](C)[C@H](O)[C@@H](C)[C@@H](O)[C@@H](C)[C@H](OC(C)=O)[C@@H]1C [Rifampicin]: the Bliss interaction score with B. subtilis 168 came out at 0.081; in the test on S. aureus DSM 20231, 0.0331; with S. aureus Newman, 0.0123; in the test on S. pneumoniae D39V, 0.0685.
As to `CC(=O)OC[C@H]1O[C@@H]([S-])[C@H](OC(C)=O)[C@@H](OC(C)=O)[C@@H]1OC(C)=O.CCP(CC)CC.[Au+]` [Auranofin] + COc1c(N2C[C@@H]3CCCN[C@@H]3C2)c(F)cc2c(=O)c(C(=O)O)cn(C3CC3)c12 [Moxifloxacin], the Bliss interaction score in the test on B. subtilis 168 was 0.031; in the test on S. aureus DSM 20231, 0.0832; in the test on S. aureus Newman, 0.105; in the test on S. pneumoniae D39V it was -0.051.
As to `CC(=O)OC[C@H]1O[C@@H]([S-])[C@H](OC(C)=O)[C@@H](OC(C)=O)[C@@H]1OC(C)=O.CCP(CC)CC.[Au+]` [Auranofin] + COc1cc(Cc2cnc(N)nc2N)cc(OC)c1OC [Trimethoprim], the Bliss interaction score with B. subtilis 168 was -0.0454; in the test on S. aureus DSM 20231 it was 0.0284; with S. aureus Newman, -0.0844; with S. pneumoniae D39V, -0.0729.
The corresponding values for `CC(=O)OC[C@H]1O[C@@H]([S-])[C@H](OC(C)=O)[C@@H](OC(C)=O)[C@@H]1OC(C)=O.CCP(CC)CC.[Au+]` [Auranofin] + COc1ccc(C[C@H](N)C(=O)N[C@H]2[C@@H](O)[C@H](n3cnc4c(N(C)C)ncnc43)O[C@@H]2CO)cc1 [Puromycin] are -0.0523, -0.0538, -0.0752 and -0.103.
Regarding `CC(=O)OC[C@H]1O[C@@H]([S-])[C@H](OC(C)=O)[C@@H](OC(C)=O)[C@@H]1OC(C)=O.CCP(CC)CC.[Au+]` [Auranofin] + COc1cccc2c1C(=O)c1c(O)c3c(c(O)c1C2=O)C[C@@](O)(C(=O)CO)C[C@@H]3O[C@H]1C[C@H](N)[C@H](O)[C@H](C)O1 [Doxorubicin], the Bliss interaction score was 0.0674 in the test with B. subtilis 168, -0.0288 with S. aureus DSM 20231, 0.112 in the test with S. aureus Newman and -0.0943 with S. pneumoniae D39V.
